molecular target: BRD4 protein (Homo sapiens, UniProt O60885); assay: FRET assay, half maximal inhibitory concentration (IC50); assay type: binding; details: BRD4 protein 50 nM, Biotin-H4KAc4 peptide 12.5 nM; A Further List of Classification
Protocol: The compounds were biologically evaluated by determining the half maximal inhibitory concentration (IC50) by FRET assay. The IC50 is a measure of the effectiveness of a substance in inhibiting a specific biological or biochemical function.
For IC50 determinations, dose-response curves were generated, using a top concentration of 50 μM compound in 12.5% DMSO, followed by 10-fold dilutions in 12.5% DMSO. The composition of the reaction buffer was 50 mM HEPES, pH 7.5; 100 mM NaCl, 0.05% CHAPS.
The reaction was run in a final volume of 25 μl. The BRD4 protein (16.5 μl) was added to wells of 384w white Optiplates (Perkin Elmer) (50 nM final concentration) and 1 μl of compound dilution of DMSO control. Incubation time was 30 minutes at room temperature. In the next step, 2.5 μl Biotin-H4KAc4 peptide (Millipore 13-379) was added to the wells (final concentration was 12.5 nM), and the plates were incubated for 30 minutes at room temperature. Detection was performed by addition of 5 μl of a mix of mAb GST-XL665 (Cisbio 61GSTXLB) (10 nM final concentration) and Streptavidin Cryptate (Cisbio 610SAKLB) (2.4 nM final conc.) in reaction buffer with 0.4M KF and 0.05% BSA). The plates were incubated for one hour prior to reading on an Envision reader (Perkin Elmer)
Data was analyzed using GraphPad Prism, and IC50 data was obtained using non-linear regression curve fit using log(inhibitor) vs response (variable slope). All compounds were considered active although classified (according to the half maximal inhibitory concentration (IC50) by FRET assay) as follows: […]

IC50 | SMILES
1000 to 10000 nM | O=C1CCc2cc(NC(=O)c3cc(S(=O)(=O)N4CCOCC4)ccc3N3CCCC3)ccc2N1 [S78, 5-morpholinosulfonyl-N-(2-oxo-3,4-dihydro-1H-quinolin-6-yl)-2-pyrrolidin-1-yl-benzamide]
> 10000 nM | Cc1cc(O)nc2ccc(NC(=O)c3cc(CN4CCOCC4)cnc3N3CCOC(CN(C)C)C3)cc12 (stereo not shown) [S117, 2-[2-(dimethylaminomethyl)morpholin-4-yl]-N-(2-hydroxy-4-methyl-6-quinolyl)-5-(morpholinomethyl)pyridine-3-carboxamide]
200 to 500 nM | Cc1cc(O)nc2ccc(NC(=O)c3cc(N4C(=O)CCC4=O)ccc3N3CCOCC3)cc12 [S14, 5-(2,5-dioxopyrrolidin-1-yl)-N-(2-hydroxy-4-methyl-6-quinolyl)-2-morpholino-benzamide]
500 to 1000 nM | Cc1cc(O)nc2ccc(NC(=O)c3cc(S(=O)(=O)N(C)C)ccc3N3CCC4C3CCCN4C)cc12 (stereo not shown) [S61, 5-(dimethylsulfamoyl)-N-(2-hydroxy-4-methyl-6-quinolyl)-2-(4-methyl-3,3a,5,6,7,7a-hexahydro-2H-pyrrolo[3,2-b]pyridin-1-yl)benzamide]
< 200 nM | Cc1cc(O)nc2ccc(NC(=O)c3cc(S(=O)(=O)N(C)C)ccc3N3CCCC3c3nnn[nH]3)cc12 (stereo not shown) [S60, 5-(dimethylsulfamoyl)-N-(2-hydroxy-4-methyl-6-quinolyl)-2-[2-(1H-tetrazol-5-yl)pyrrolidin-1-yl]benzamide]
1000 to 10000 nM | Cc1ccc(C(=O)Nc2ccc3c(c2)CCC(=O)N3C)cc1S(=O)(=O)NC1CCCC1 [S3, 3-(cyclopentylsulfamoyl)-4-methyl-N-(1-methyl-2-oxo-3,4-dihydroquinolin-6-yl)benzamide]
> 10000 nM | Cc1cc(O)nc2ccc(NC(=O)c3cccc(S(=O)(=O)NCC(N)=O)c3)cc12 [S26, 3-[(2-amino-2-oxo-ethyl)sulfamoyl]-N-(2-hydroxy-4-methyl-6-quinolyl)benzamide]
200 to 500 nM | Cc1cc(O)nc2ccc(NC(=O)c3cc(S(=O)(=O)N(C)C)ccc3N3CCCC3CC(C)C)cc12 (stereo not shown) [S55, 5-(dimethylsulfamoyl)-N-(2-hydroxy-4-methyl-6-quinolyl)-2-(2-isobutylpyrrolidin-1-yl)benzamide]
1000 to 10000 nM | CCS(=O)(=O)Nc1ccc(N2CCN(C)CC2)c(C(=O)Nc2ccc3nc(O)cc(C)c3c2)c1 [S16, 5-(ethylsulfonylamino)-N-(2-hydroxy-4-methyl-6-quinolyl)-2-(4-methylpiperazin-1-yl)benzamide]
< 200 nM | Cc1cc(O)nc2ccc(NC(=O)c3cc(S(=O)(=O)N(C)C)ccc3N3CCC(C(N)=O)C3)cc12 (stereo not shown) [S44, 1-[4-(dimethylsulfamoyl)-2-[(2-hydroxy-4-methyl-6-quinolyl)carbamoyl]phenyl]pyrrolidine-3-carboxamide]
500 to 1000 nM | Cc1cc(O)nc2ccc(NC(=O)c3cc(S(=O)(=O)N(C)C)ccc3N3CCC(C)C3)cc12 (stereo not shown) [S41, 5-(dimethylsulfamoyl)-N-(2-hydroxy-4-methyl-6-quinolyl)-2-(3-methylpyrrolidin-1-yl)benzamide]
500 to 1000 nM | CCN(CC)S(=O)(=O)c1ccc(N2CCCC2)c(C(=O)Nc2ccc3nc(O)cc(C)c3c2)c1 [S71, 5-(diethylsulfamoyl)-N-(2-hydroxy-4-methyl-6-quinolyl)-2-pyrrolidin-1-yl-benzamide]
1000 to 10000 nM | CN1C(=O)CCc2cc(NC(=O)c3cccnc3N3CCOCC3)ccc21 [S4, N-(1-methyl-2-oxo-3,4-dihydroquinolin-6-yl)-2-morpholino-pyridine-3-carboxamide]
< 200 nM | Cc1cc(O)nc2ccc(NC(=O)c3cc(CN4CCN(CCO)CC4)ccc3N3CCCC3)cc12 [S86, 5-[[4-(2-hydroxyethyl)piperazin-1-yl]methyl]-N-(2-hydroxy-4-methyl-6-quinolyl)-2-pyrrolidin-1-yl-benzamide]

same assay, conditions: BRD4 protein 50 nM, Biotin-H4KAc4 peptide 12.5 nM; List of Classification

SMILES | IC50
CC1(C)CC(=O)Nc2ccc(NC(=O)c3cc(CN4CCOCC4)ccc3N3CCCC3)cc21 [Compound-103, N-(4,4-dimethyl-2-oxo-1,3-dihydroquinolin-6-yl)-5-(morpholinomethyl)-2-pyrrolidin-1-yl-benzamide] | 200 to 500 nM
O=C(Nc1ccc2nc(O)cc(C(F)(F)F)c2c1)c1cc(CN2CCOCC2)ccc1N1CCCC1 [Compound-28, N-(2-hydroxy-4-(trifluoromethyl)quinolin-6-yl)-5-(morpholinomethyl)-2-(pyrrolidin-1-yl) benzamide] | 500 to 1000 nM
Cc1cc(O)nc2ccc(NC(=O)c3cc(S(=O)(=O)N4CCOCC4)ccc3N3CCCC3)cc12 [Compound-74, N-(2-hydroxy-4-methyl-6-quinolyl)-5-morpholinosulfonyl-2-pyrrolidin-1-yl-benzamide] | < 200 nM
CN(C)S(=O)(=O)c1ccc(N2CCCC2)c(C(=O)Nc2ccc3c(c2)C(C)(C)CC(=O)N3)c1 [Compound-104, N-(4,4-dimethyl-2-oxo-1,3-dihydroquinolin-6-yl)-5-(dimethylsulfamoyl)-2-pyrrolidin-1-yl-benzamide] | < 200 nM
Cc1cc(O)nc2ccc(NC(=O)c3nc(-c4nnn[nH]4)ccc3N3CCCC3)cc12 [Compound-33, N-(2-hydroxy-4-methylquinolin-6-yl)-3-(pyrrolidin-1-yl)-6-(1H-tetrazol-5-yl) picolinamide] | 1000 to 10000 nM
Cc1cc(O)nc2ccc(NC(=O)c3cc(C(=O)N4CCOCC4)ccc3N3CCOCC3)cc12 [Compound-11, N-(2-hydroxy-4-methylquinolin-6-yl)-5-(morpholine-4-carbonyl)-2-morpholinobenzamide] | 200 to 500 nM
Cc1cc(O)nc2ccc(NC(=O)c3cc(-c4cnn(C)c4)ccc3N3CCOCC3)cc12 [Compound-166, N-(2-hydroxy-4-methyl-6-quinolyl)-5-(1-methylpyrazol-4-yl)-2-morpholino-benzamide] | < 200 nM
Cc1cc(O)nc2ccc(NC(=O)c3cc(C#N)ncc3N3CCC(F)C3)cc12 (stereo not shown) [Compound-115, 2-cyano-5-(3-fluoropyrrolidin-1-yl)-N-(2-hydroxy-4-methylquinolin-6-yl) isonicotinamide] | < 200 nM
Cc1cc(O)nc2ccc(NC(=O)c3cccnc3N3CCC(F)(F)C3)cc12 [Compound-133, 2-(3,3-difluoropyrrolidin-1-yl)-N-(2-hydroxy-4-methyl-6-quinolyl)pyridine-3-carboxamide] | < 200 nM
Cc1cc(O)nc2ccc(NC(=O)c3cc(CN4CCOCC4)ccc3N3CCCC3CO)cc12 (stereo not shown) [Compound-30, N-(2-hydroxy-4-methylquinolin-6-yl)-2-(2-(hydroxymethyl)pyrrolidin-1-yl)-5-(morpholinomethyl) benzamide] | < 200 nM
Cc1cc(O)nc2ccc(NC(=O)c3cc(CN4CCOCC4)ccc3N3CCC(O)C3)cc12 (stereo not shown) [Compound-31, N-(2-hydroxy-4-methyl-6-quinolyl)-2-(3-hydroxypyrrolidin-1-yl)-5-(morpholinomethyl)benzamide] | < 200 nM
Cc1cc(O)nc2ccc(NC(=O)c3cccnc3N3C4CCC3COC4)cc12 [Compound-144, N-(2-hydroxy-4-methyl-6-quinolyl)-2-(3-oxa-8-azabicyclo[3.2.1]octan-8-yl)pyridine-3-carboxamide] | < 200 nM
Cc1cc(O)nc2ccc(NC(=O)c3cc(CN4CCOCC4)ccc3N3CCCC3CN(C)C)cc12 (stereo not shown) [Compound-32, 2-(2-((dimethylamino)methyl)pyrrolidin-1-yl)-N-(2-hydroxy-4-methylquinolin-6-yl)-5-(morpholinomethyl) benzamide] | < 200 nM
COc1cc2nc(O)cc(C)c2cc1NC(=O)c1cc(-c2cnn(C)c2)cnc1N1CCOCC1 [Compound-170, N-(2-hydroxy-7-methoxy-4-methylquinolin-6-yl)-5-(1-methyl-1H-pyrazol-4-yl)-2-morpholinonicotinamide] | < 200 nM

Second part, the molecule after the results:

IC50 | SMILES
200 to 500 nM | Cc1cc(O)nc2ccc(NC(=O)c3cc(C#N)ncc3N3CCCC3CN(C)C)cc12 (stereo not shown) [Compound-211]
< 200 nM | Cc1cc(O)nc2c(C)cc(NC(=O)c3cc(-c4ccoc4)cnc3N3CCOCC3)cc12 [Compound-179, 5-(furan-3-yl)-N-(2-hydroxy-4,8-dimethylquinolin-6-yl)-2-morpholinonicotinamide]
200 to 500 nM | Cc1cc(-c2cnc(N3CCOCC3)c(C(=O)Nc3cc4c(C)cc(O)nc4cc3C)c2)on1 [Compound-200, N-(2-hydroxy-4,7-dimethylquinolin-6-yl)-5-(3-methylisoxazol-5-yl)-2-morpholinonicotinamide]
< 200 nM | Cc1cc(O)nc2ccc(NC(=O)c3cc(C(=O)O)ccc3N3CCOCC3)cc12 [Compound-182, 3-(2-hydroxy-4-methylquinolin-6-ylcarbamoyl)-4-morpholinobenzoic acid]
500 to 1000 nM | Cc1cc(O)nc2ccc(NC(=O)c3cc(C#N)cnc3N3CCOCC3)cc12 [Compound-183, 5-cyano-N-(2-hydroxy-4-methylquinolin-6-yl)-2-morpholinonicotinamide]
> 10000 nM | Cc1cc2nc(O)cc(C)c2cc1NC(=O)c1cc(-c2nnnn2C)cnc1N1CCOCC1 [Compound-196, N-(2-hydroxy-4,7-dimethylquinolin-6-yl)-5-(1-methyl-1H-tetrazol-5-yl)-2-morpholinonicotinamide]
